Assay results reported in patent publication US20220030868A1, “FUNGICIDAL HALOMETHYL KETONES AND HYDRATES” (FMC CORPORATION, priority 2018, published 2022).

Columns and labels:
Phakopsora pachyrhizi = assay: Test A: test suspension sprayed on soybean seedlings one day before inoculation with Phakopsora pachyrhizi spores (Asian soybean rust), visual disease rating; type: in vivo; details: 100 = 100% disease control, 0 = no control; for pest or weed control at 50 ppm / pest or weed control at 10 ppm: Phakopsora pachyrhizi
Procedure, shortened: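 Compound dissolved in acetone (3% of final volume), then suspended at the stated ppm in 50/50 acetone/water with 250 ppm PEG400 surfactant; sprayed to run-off on soybean seedlings, inoculated with P. pachyrhizi spores next day. Held saturated at 22° C for 24 h, then 8 days at 22° C; visual rating as % disease control versus controls.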

[1] = system: Puccinia recondita f. sp. tritici; assay: Test B: test suspension sprayed on wheat seedlings one day before inoculation with Puccinia recondita f. sp. tritici spores (wheat leaf rust), disease rating; type: in vivo; details: 100 = 100% disease control, 0 = no control
Procedure, shortened: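 Wheat seedlings were sprayed to run-off with compound suspended in 50/50 acetone/water containing 250 ppm PEG400, then inoculated with P. recondita f. sp. tritici spores the next day. Plants were held 24 h in saturated air at 20 °C, then 6 days in a growth chamber at 20 °C. Disease control was rated 0–100% relative to controls, with some entries run at 50 or 10 ppm.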

Compound | Test A rating (disease control) (Phakopsora pachyrhizi; 10 ppm test suspension) [%] | Test B rating (disease control) ([1]; 10 ppm test suspension) [%] | further results
C#CCNC(=O)c1ccc(O/C=C(\OCC)C(F)(F)F)cc1 [compound 102] | 0 | 0 | –
C=CCNC(=O)c1ccc(O/C=C(\OCC)C(F)(F)F)cc1 [compound 103] | 0 | 0 | –
CCCNC(=O)c1ccc(O/C=C(\OCC)C(F)(F)F)cc1 [compound 104] | 0 | 80 | –
CCO/C(=C\Oc1ccc(C(=O)NC)cc1)C(F)(F)F [compound 105] | 0 | 68 | –
CCO/C(=C\Oc1ccc(Cn2cc(C(=O)NCC(F)(F)F)cn2)cc1)C(F)(F)F [compound 106] | 0 | 0 | –
CCO/C(=C\Oc1ccc(Cn2cc(C(=O)NCC#N)cn2)cc1)C(F)(F)F [compound 107] | 0 | 0 | –
CCO/C(=C\Oc1ccc(CN)cc1)C(F)(F)F [compound 110] | – | – | Test A rating (disease control) (Phakopsora pachyrhizi; 50 ppm test suspension): 79%; Test B rating (disease control) ([1]; 50 ppm test suspension): 0%
CCOC(=O)NCc1ccc(O/C=C(\OCC)C(F)(F)F)cc1 [compound 111] | 0 | 0 | –
CC(C)COC(=O)NCc1ccc(OCC2(C(F)(F)F)OCCO2)cc1 [compound 112] | 0 | 0 | –
CCO/C(=C\Oc1ccc(CNC(=O)CC(F)(F)F)cc1)C(F)(F)F [compound 113] | 0 | 0 | –
CCO/C(=C\Oc1ccc(CNC(=O)C(C)OC)cc1)C(F)(F)F (centres unmarked) [compound 114] | – | – | Test A rating (disease control) (Phakopsora pachyrhizi; 50 ppm test suspension): 44%; Test B rating (disease control) ([1]; 50 ppm test suspension): 0%
CCOC(=O)c1cnn(Cc2ccc(SCC3(C(F)(F)F)OCCO3)cc2)c1 [compound 115] | – | – | Test A rating (disease control) (Phakopsora pachyrhizi; 250 ppm test suspension): 0%; Test B rating (disease control) ([1]; 250 ppm test suspension): 0%
CCO/C(=C\Oc1ccc(Cn2cc(C(=O)O)cn2)cc1)C(F)(F)F [compound 116] | 100 | 0 | –
CCO/C(=C\Oc1ccc(Cn2cc(C(=O)NCC3CC3)cn2)cc1)C(F)(F)F [compound 117] | 23 | 0 | –
CCO/C(=C\Oc1ccc(Cn2cc(C(=O)NC(C)C)cn2)cc1)C(F)(F)F [compound 118] | 0 | 0 | –
CCOC(=O)c1cnn(Cc2ccc(O/C=C(\OCC)C(F)(F)F)cc2)n1 [compound 119] | 97 | 0 | –
CCOC(=O)c1cnnn1Cc1ccc(O/C=C(\OCC)C(F)(F)F)cc1 [compound 120] | 0 | 0 | –
CCOC(=O)c1cn(Cc2ccc(O/C=C(\OCC)C(F)(F)F)cc2)nn1 [compound 121] | 100 | 0 | –
CCCCOC(=O)c1cnn(Cc2ccc(OCC3(C(F)(F)F)OCCO3)cc2)c1 [compound 125] | 100 | 0 | –
CCO/C(=C\Oc1ccc(Cc2nc(C(=O)NCC(F)(F)F)cs2)cc1)C(F)(F)F [compound 129] | 100 | 0 | –
CCO/C(=C\Oc1ccc(Cc2nc(C(=O)NCC3CC3)cs2)cc1)C(F)(F)F [compound 130] | 100 | 0 | –
CCOC(=O)c1cnn(CCc2ccc(OCC3(C(F)(F)F)OCCO3)cc2)c1 [compound 133] | 79 | 0 | –
O=C(OCC(F)(F)F)c1cnn(Cc2ccc(OCC3(C(F)(F)F)OCCO3)cc2)c1 [compound 134] | 89 | 32 | –
CCO/C(=C\Oc1ccc(Cn2cc(C(=O)OC(C)C)cn2)cc1)C(F)(F)F [compound 139] | 100 | 0 | –
CCOC(=O)c1cnn(Cc2ccc(C/C=C(\OCC)C(F)(F)F)cc2)c1 [compound 140] | 98 | 23 | –

Compound | Test A rating (disease control) (Phakopsora pachyrhizi; 10 ppm test suspension) [%] | Test B rating (disease control) ([1]; 10 ppm test suspension) [%] | further results
CCOC(=O)c1cnn(Cc2ccc(COCC3(C(F)(F)F)OCCO3)cc2)c1 [compound 141] | 0 | 0 | –
CCO/C(=C\Oc1ccc(-c2noc(C(F)(F)F)n2)cc1)C(F)(F)F [compound 143] | 0 | 0 | –
CCO/C(=C\Oc1ccc(C#N)cc1)C(F)(F)F [compound 144] | 78 | 0 | –
CCOC(=O)c1cnn(Cc2ccc(O/C=C(\OCCO)C(F)(F)F)cc2)c1 [compound 145] | 82 | 0 | –
CCOC(=O)c1cnn(Cc2cccc(OCC3(C(F)(F)F)OCCO3)c2)c1 [compound 146] | – | – | pest or weed control at 50 ppm (Phakopsora pachyrhizi; 50 ppm test suspension): 60%; pest or weed control at 50 ppm ([1]; 50 ppm test suspension): 0%
N#Cc1cccc(OCC2(C(F)(F)F)OCCO2)c1 [compound 147] | – | – | pest or weed control at 50 ppm (Phakopsora pachyrhizi; 50 ppm test suspension): 77%; pest or weed control at 50 ppm ([1]; 50 ppm test suspension): 0%
CCO/C(=C\Oc1ccc(C=O)cc1)C(F)(F)F [compound 148] | 0 | 0 | –
CCO/C(=C\Oc1ccc(CNS(=O)(=O)CC)cc1)C(F)(F)F [compound 149] | 0 | 0 | –
CCO/C(=C\Oc1ccc(CNC(=O)CC)cc1)C(F)(F)F [compound 150] | 33 | 0 | –
CCO/C(=C\Oc1ccc(Cn2cccn2)cc1)C(F)(F)F [compound 151] | 0 | 0 | –
CCO/C(=C\Oc1ccc(Cn2nc(C)cc2C)cc1)C(F)(F)F [compound 152] | 0 | 0 | –
CCOC(=O)c1cn(Cc2ccc(O/C=C(\OCC)C(F)(F)F)cc2)cn1 [compound 153] | 100 | 0 | –
CCO/C(=C\Oc1ccc(CC#N)cc1)C(F)(F)F [compound 154] | 0 | 0 | –
CCO/C(=C\Oc1ccc(CSC#N)cc1)C(F)(F)F [compound 155] | 0 | 0 | –
CCO/C(=C\Oc1ccc(Cn2ccnc2)cc1)C(F)(F)F [compound 156] | 0 | 0 | –
CCO/C(=C\Oc1ccc(Cn2ccc(C)n2)cc1)C(F)(F)F [compound 158] | 0 | 0 | –
CCOC(=O)c1ccc2c(cnn2Cc2ccc(OCC3(C(F)(F)F)OCCO3)cc2)c1 [compound 160] | 13 | 0 | –
O=C(OCCCCl)c1cnn(Cc2ccc(OCC3(C(F)(F)F)OCCO3)cc2)c1 [compound 161] | 100 | 0 | –
N#CCNC(=O)c1cnn(Cc2ccc(OCC3(C(F)(F)F)OCCO3)cc2)c1 [compound 164] | 31 | 0 | –
O=[N+]([O-])c1cccc(OCC2(C(F)(F)F)OCCO2)c1 [compound 165] | – | – | pest or weed control at 10 ppm (Phakopsora pachyrhizi; 10 ppm test suspension): 0%; pest or weed control at 10 ppm ([1]; 10 ppm test suspension): 0%
O=[N+]([O-])c1ccc(OCC2(C(F)(F)F)OCCO2)cc1 [compound 166] | 100 | 95 | –
CCOC(=O)c1cnn(Cc2ccc(CO/C=C(\OCC)C(F)(F)F)cc2)c1 [compound 167] | 38 | 0 | –
CCOC(=O)c1cnn(Cc2ccc(OCC3(C(F)(F)F)OCCO3)nc2)c1 [compound 168] | – | – | pest or weed control at 10 ppm (Phakopsora pachyrhizi; 10 ppm test suspension): 0%; pest or weed control at 10 ppm ([1]; 10 ppm test suspension): 0%
CC(=O)COC(=O)c1cnn(Cc2ccc(OCC3(C(F)(F)F)OCCO3)cc2)c1 [compound 169] | 100 | 0 | –
